# Like-named read-outs stand apart in the source and are kept apart here.
# Legend:
# [1] = tested on: S. aureus MSSA (ATCC 29213); test: MIC susceptibility testing; format: cell-based, Staphylococcus aureus; conditions: for MIC: Staphylococcus aureus
# [2] = tested on: S. aureus MRSA (ATCC 33591); test: MIC susceptibility testing; format: cell-based, Staphylococcus aureus; conditions: for MIC: Staphylococcus aureus
# Outline: (§1)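 CLSI broth microdilution with two-fold compound dilutions, in triplicate; cells added in medium at 1×10^6 CFUs/mL, DMSO ≤0.5%. Media: MHB for S. aureus, CA-MHB for E. coli and E. faecium, CA-MHB plus 3% laked horse blood for S. pyogenes (5% CO2).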
# [3] = target: T1, MetRS (T. brucei) (Trypanosoma brucei brucei, UniProt Q38C91); test: MetRS (T. brucei) enzyme inhibition; format: biochemical
# T1 sequence (Q38C91 1-773): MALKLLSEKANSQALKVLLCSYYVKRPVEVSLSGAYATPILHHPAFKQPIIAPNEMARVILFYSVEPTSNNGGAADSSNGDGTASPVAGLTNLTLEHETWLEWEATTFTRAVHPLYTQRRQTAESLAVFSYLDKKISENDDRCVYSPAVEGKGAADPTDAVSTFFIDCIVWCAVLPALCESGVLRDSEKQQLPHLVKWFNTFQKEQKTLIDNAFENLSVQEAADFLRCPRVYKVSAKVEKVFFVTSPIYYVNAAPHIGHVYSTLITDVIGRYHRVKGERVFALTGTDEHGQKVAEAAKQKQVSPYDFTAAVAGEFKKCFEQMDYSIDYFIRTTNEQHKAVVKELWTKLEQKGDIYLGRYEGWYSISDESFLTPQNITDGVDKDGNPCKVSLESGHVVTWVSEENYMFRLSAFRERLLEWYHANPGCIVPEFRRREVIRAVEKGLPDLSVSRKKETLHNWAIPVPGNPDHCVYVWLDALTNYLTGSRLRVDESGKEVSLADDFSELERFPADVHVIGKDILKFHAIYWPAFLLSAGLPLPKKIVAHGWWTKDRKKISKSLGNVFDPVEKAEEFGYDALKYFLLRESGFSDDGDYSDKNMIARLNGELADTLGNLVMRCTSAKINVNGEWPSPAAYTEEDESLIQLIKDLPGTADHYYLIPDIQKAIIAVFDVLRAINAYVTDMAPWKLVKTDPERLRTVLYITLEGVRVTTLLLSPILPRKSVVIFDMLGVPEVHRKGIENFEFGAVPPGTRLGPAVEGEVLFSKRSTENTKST
# [4] = Protein binding assays, equilibrium dialysis; format: in vitro ADME, mouse; conditions: 1 μM, equilibrium dialysis 22 hours
# Method: Protein binding assays: Compound binding to mouse plasma proteins was determined using 96-well equilibrium dialyzer plates (SDIS 9610EN, Nest Group, Inc.). Mouse plasma ([…]-SW-F, BioreclamationIVT, Westbury, N.Y.) containing compound (final concentration 1 μM) was added to a donor chamber as a 150 μL volume. The buffer solution (0.2 mM phosphate buffer, 150 μL) was added to the reciprocal acceptor chamber. Each compound was tested in triplicate. To prepare calibration solution for compound quantifications, blank wells were prepared containing only mouse plasma in a donor well and buffer solution in its acceptor well. The equilibrium dialysis was carried out by rocking the plate for 22 hours in 37° C. Once equilibrium was reached, the plasma and buffer solution from both wells were carefully removed for further analysis with liquid chromatography-tandem mass spectrometry. Plasma solution and internal standard were mixed in the presence of 80% acetonitrile. After centrifuging the solution, the supernatant was transferred to an insert. Similarly, the buffer solution from the acceptor side was prepared containing 40% acetonitrile. Calibration standards for donor and acceptor sides were prepared with compound concentrations of 50 nM, 100 nM, 250 nM, 500 nM, and 1 μM. The compound concentrations from each well were calculated from the calibration curves using Microsoft Excel. The percentage of the test compound bound was determined as follows: % Free=(Concentration buffer chamber/Concentration plasma chamber)×100% % Bound=100%−% Free
# [5] = tested on: S. aureus VISA (ATCC 700699); test: MIC susceptibility testing; format: cell-based; conditions: Staphylococcus aureus; read-out: S. aureus VISA (ATCC 700699) MIC
# Outline: as §1
# [6] = tested on: S. aureus MSSA (ATCC 19636); test: MIC susceptibility testing; format: cell-based; conditions: Staphylococcus aureus; read-out: S. aureus MSSA (ATCC 19636) MIC
# Outline: as §1
# [7] = tested on: S. aureus MRSA (ATCC 43300); test: MIC susceptibility testing; format: cell-based; conditions: Staphylococcus aureus; read-out: S. aureus MRSA (ATCC 43300) MIC
# Outline: as §1
# [8] = tested on: S. pneumoniae (ATCC 49619); test: MIC susceptibility testing; format: cell-based; conditions: Streptococcus pneumoniae, ATCC49619, 18 h; medium with 3% laked horse blood; read-out: S. pneumoniae (ATCC 49619) MIC
# [9] = tested on: E. coli MB5746 (lpxC, tolC); test: microbe, parasite or virus in culture; format: cell-based; conditions: Escherichia coli, read-out: MIC MB5746 (lpxC, tolC)
# Method: (§2) Bacterial strains. Strains with ATCC designations were either obtained directly from the American Type Culture Collection (Manassas, Va.) or were kindly provided by the University of Washington Clinical Microbiology laboratory. Escherichia coli permeability mutants (properties shown in Table 1) were provided as a gift from Dr. Katherine Young at Merck (Rahway, N.J.).
# (§3) Susceptibility testing: Minimum inhibitory concentration (MIC) determinations were performed in triplicate in 96-well round bottom microtiter plates (Corning, Corning N.Y.) as described by the Clinical and Laboratory Standards Institute (CLSI). Serial two-fold dilutions of compounds were added to plates in 50 μL volumes. An additional 50 μL of media containing bacterial cells (1×10^6 CFUs/mL) was then added to each well. Maximum DMSO concentrations were 0.5%. Plates were incubated at 37° C. for at least 18 h before reading the susceptibility result by optical absorbance (OD600) using a BioTek ELx800. The lowest concentration causing ≥90% growth inhibition compared to the untreated control was recorded as the MIC (and also corresponded to the visual MIC). MICs were measured at least twice and the higher value (if different) was recorded herein.
# [10] = tested on: E. coli MB4902 (lpxC); test: microbe, parasite or virus in culture; format: cell-based; conditions: Escherichia coli, read-out: MIC MB4902 (lpxC)
# Method: as §2, §3
# [11] = tested on: E. coli MB5747 (tolC); test: microbe, parasite or virus in culture; format: cell-based; conditions: Escherichia coli, read-out: MIC MB5747 (tolC)
# Method: as §2, §3
# [12] = 18 h, read-out: S. aureus MSSA (ATCC 29213) MIC
# [13] = MRSA ATCC33591, read-out: (G) MRSA (ATCC33591) MIC
# [14] = read-out: S. aureus MRSA (ATCC 33591) MIC
SMILES,"MIC [1, 12]",(G) MRSA (ATCC33591) MIC ([2]; MRSA ATCC33591),"MIC [2, 13]","MIC [2, 14]",IC50 [3],% binding to mouse plasma [4],MIC [5],MIC [6],MIC [7],MIC [8],MIC [9],MIC [10],MIC [11],(F) S. aureus (ATCC 29213) MIC ([1]; S. aureus ATCC 29213),"MIC ([1]; S. aureus ATCC 29213, read-out: (F) S. aureus (ATCC 29213) MIC)",MIC ([1]; read-out: MIC against S. aureus)
"CCn1c(Cc2ccc(OC)cc2Cl)cn(Cc2nc3nc(Cl)ccc3[nH]2)c1=O [Compound 2093, 1-({5-chloro-1H-imidazo[4,5-b]pyridin-2-yl}methyl)-4-[(2-chloro-4-methoxyphenyl)methyl]-3-ethyl-2,3-dihydro-1H-imidazol-2-one]",0.039 µg/mL,0.225 µg/mL,0.123 µg/mL,0.313 µg/mL,< 40 nM,99.9%,0.313 µg/mL,0.313 µg/mL,0.313 µg/mL,> 20 µg/mL,> 20 µg/mL,> 20 µg/mL,> 20 µg/mL,,,
"CCn1c(Cc2ccc(OC)cc2Cl)cn(Cc2nc3nc(F)ccc3[nH]2)c1=O [Compound 2114, 4-[(2-chloro-4-methoxyphenyl)methyl]-3-ethyl-1-({5-fluoro-1H-imidazo[4,5-b]pyridin-2-yl}methyl)-2,3-dihydro-1H-imidazol-2-one]",0.313 µg/mL,,1.53 µg/mL,,< 40 nM,,,,,,,,,0.192 µg/mL,0.129 µg/mL,
"CCn1c(Cc2ccc(Cl)cc2Cl)cn(Cc2nc3nc(F)ccc3[nH]2)c1=O [Compound 2062, 4-[(2,4-dichlorophenyl)methyl]-3-ethyl-1-({5-fluoro-1H-imidazo[4,5-b]pyridin-2-yl}methyl)-2,3-dihydro-1H-imidazol-2-one]",0.078 µg/mL,,,,< 40 nM,99.4%,,,,,,,,,,
"COc1cc(Cl)c(-c2cccc3nc(Cc4nc5nc(Cl)ccc5[nH]4)cn23)cc1OC [Compound 2144, 2-({5-chloro-1H-imidazo[4,5-b]pyridin-2-yl}methyl)-5-(2-chloro-4,5-dimethoxyphenyl)imidazo[1,2-a]pyridine]",0.0195 µg/mL,"0.0216, μg/mL",0.033 µg/mL,0.039 µg/mL,< 40 nM,98.4%,0.039 µg/mL,0.078 µg/mL,0.039 µg/mL,> 20 µg/mL,> 20 µg/mL,> 20 µg/mL,> 20 µg/mL,,,
"Fc1ccc2nc(NCCCNCc3cc(Cl)cc(Cl)c3)[nH]c2n1 [Compound 1614, [(3,5-dichlorophenyl)methyl][3-({5-fluoro-3H-imidazo[4,5-b]pyridin-2-yl}amino)propyl]amine]",2.5 µg/mL,,,5 µg/mL,,96.5%,10 µg/mL,2.5 µg/mL,5 µg/mL,> 10 µg/mL,,,,,,
"CC(=O)NC[C@H]1CN(c2ccc(N3CCOCC3)c(F)c2)C(=O)O1 [LNZ, linezolid]",2.5 µg/mL,,,1.25 µg/mL,,39.5%,1.25 µg/mL,1.25 µg/mL,2.5 µg/mL,1.25 µg/mL,,,,,,
"Fc1ccc2nc(NCCCN[C@@H]3CCNc4c(Cl)cc(Cl)cc43)[nH]c2n1 [Compound 1717, (4R)-6,8-dichloro—N-[3-({5-fluoro-3H-imidazo[4,5-b]pyridin-2-yl}amino)propyl]-1,2,3,4-tetrahydroquinolin-4-amine, reference compound]",0.156 µg/mL,,,0.078 µg/mL,,97.6%,0.156 µg/mL,0.078 µg/mL,0.156 µg/mL,> 20 µg/mL,> 20 µg/mL,> 20 µg/mL,> 20 µg/mL,,,0.156 µg/mL
